Experimental data published in patent US10106539B2, “Spiro-indolines for the treatment and prophylaxis of respiratory syncytial virus infection (RSV)” (REVIRAL LIMITED, priority 2014, dated 2018).
Like-named read-outs stand apart in the source and are kept apart here.

Legend:
[1] = Plasma protein binding (equilibrium dialysis), rat; type: in vitro ADME; settings: plasma (100%)
Method: (§1) Protein Binding Determination: Experimental Procedure
(§2) Solutions of test compound (5 μM, 0.5% final DMSO concentration) are prepared in buffer (pH 7.4) and 100% species-specific plasma. The experiment is performed using equilibrium dialysis with the two compartments separated by a semi-permeable membrane. The buffer solution is added to one side of the membrane and the plasma solution to the other side. After equilibration, samples are taken from both sides of the membrane. Standards are prepared in plasma and buffer and are incubated at 37° C.
(§3) Test compound incubations are performed in duplicate. A control compound is included in each experiment.
(§4) The solutions for each batch of compounds are combined into two groups (protein-free and protein-containing), then cassette analysed by LC-MS/MS using two sets of calibration standards for protein-free (7 points) and protein-containing solutions (6 points).

RSV fusion (A2_F) = target: T1, RSV fusion (A2_F) (Human respiratory syncytial virus A, UniProt P03420); assay: RSV fusion assay (luciferase reporter, transfected HEK 293T/17 cells); type: cell-based
T1 construct: expressed in transfected cells; host or cells: HEK 293T/17
Method: HEK 293T/17 cells were cultured in T75 culture flasks in Dulbecco's medium containing 10% FBS and 1× Penicillin-Streptomycin and warmed to 37° C. prior to use. The cells were passaged by first washing briefly with 3 ml PBS followed by a 4 min incubation with […] at 37° C. 7 ml media was then added to the flask and the cells dispersed via pipetting (×3) against the bottom of the flask. Two further T75 flasks were each seeded with 2×10^6 cells in 15 ml fresh media.
Cells were seeded on the T75 plates at the same density as on the 6-well plates to the area of a T75 flask and one 1.75 cm radius well from a 6-well plate were compared. 7.79×2 ml of 3×10^5 cells ml^−1 was used to seed a single T75 flask.
HEK cells were removed from a T75 flask as described above. The cells were counted and diluted to 3×10^5 cells/ml in fresh media. Two T75 flasks were each seeded with 15.58 ml diluted cells.
The plasmid DNA (for pFR-Luc and pcDNA3.1_Gal4/NFκB) to be transfected into the HEK cells was first prepared in serum free media (DMEM+Pen/Strep) containing the transfection reagent Fugene 6 (Promega). Transfections were set up as follows (Luc=pFR_Luc, Gal4=pcDNA3.1+_Gal4/NFκB, A2_F=pcDNA3.1+_A2_F)
Serum free media was placed in a 1.5 ml eppendorf tube then the fugene 6 was added into the media. The tube was vortexed for 1 s before being incubated at RT for 5 min. The plasmid DNA was then added to the tube, vortexed for 1 s, then incubated at RT for 15 min
The transfection reagents were then added to the appropriate T75 flask by tipping the flask on end and adding the reagents directly to the media already in the flask. […]
Luminescence was measured at appropriate time points as follows:
Media was discarded into Virkon and the plates washed with 100 ul PBS per well. […] Add 100 μl working luciferin buffer to each well and luminescence was measured immediately.
Media was discarded into Virkon and 100 ul SFM+20 ul CellTitre-Blue solution was added to each well. […] Resorufin fluorescence was measured at 590 nm.

[2] = In vivo pharmacokinetics in rats (IV and PO); set-up: species or system male Sprague Dawley rats; settings: rat; for Vd: 1 mg/kg (IV)
Method: The pharmacokinetics of compounds were studied in vivo in male Sprague Dawley rats at doses of 1 mg/kg (IV) and 10 mg/kg (PO).
Sprague Dawley rats were treated with experimental compounds via intravenous and oral administration. Three animals for each route of administration were used with serial blood sampling at ten time points post dosing of compound.
Animals were weighed and used if between 200-250 g. Serial blood samples were collected at 0.02, 0.08, 0.25, 0.50, 1, 2, 4, 6, 8 and 24 hours post dosing. […] Blood samples were delivered into an anticoagulant (sodium heparin) and centrifuged at 4° C. Plasma samples were subsequently stored frozen at less than −20° C. prior to analysis.
Following protein precipitation with acetonitrile, samples were analysed with tandem liquid chromatography/mass spectrometry using electrospray ionisation. A full matrix curve with internal standards was employed and PK parameters were calculated.
In a similar manner, oral administration was performed by gavage at doses of 5 or 10 mg/kg at a concentration of 5 mg/ml in 1% Methyl cellulose (Sigma M7140), 0.1% Tween 80 in water. Serial samples were taken as described above.
RV039 was administered at doses of 1 mg/kg (IV) and 5 mg/kg (PO).

[3] = Plasma protein binding (equilibrium dialysis), dog; type: in vitro ADME; settings: plasma (100%)
Method: as §1, §2, §3, §4

T1 sequence (P03420 26-109): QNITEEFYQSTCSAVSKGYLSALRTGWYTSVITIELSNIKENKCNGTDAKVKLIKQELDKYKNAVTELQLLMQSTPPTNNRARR
T1 sequence (P03420 137-574): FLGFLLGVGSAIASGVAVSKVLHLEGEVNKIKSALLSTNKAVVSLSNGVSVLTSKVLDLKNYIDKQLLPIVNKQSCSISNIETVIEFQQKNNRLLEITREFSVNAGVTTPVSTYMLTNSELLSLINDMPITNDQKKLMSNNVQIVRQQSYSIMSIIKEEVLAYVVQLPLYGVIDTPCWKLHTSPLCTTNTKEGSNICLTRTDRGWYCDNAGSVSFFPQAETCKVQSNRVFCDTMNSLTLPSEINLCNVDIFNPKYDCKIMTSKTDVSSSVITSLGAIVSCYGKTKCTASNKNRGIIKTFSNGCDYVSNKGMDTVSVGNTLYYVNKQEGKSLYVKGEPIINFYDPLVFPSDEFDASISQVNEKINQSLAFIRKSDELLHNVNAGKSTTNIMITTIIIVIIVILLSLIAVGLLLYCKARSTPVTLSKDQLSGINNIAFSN

Structure (SMILES)	fraction unbound at 5 μM ([1]; pH 7.4, 5 μM, read-out: PPB fraction unbound, rat)	IC50 (RSV fusion (A2_F))	IC90 (RSV fusion (A2_F); HEK293T/17, read-out: RSV Fusion Assay IC90)	bioavailability ([2]; in vivo, male Sprague Dawley rats, 1 mg/kg (IV) and 10 mg/kg (PO), read-out: Bioavailability)	Vd ([2]; in vivo, male Sprague Dawley rats, read-out: Volume of distribution)	Tmax ([2]; in vivo, male Sprague Dawley rats, 10 mg/kg (PO), read-out: Tmax PO)	fraction unbound at 5 μM ([3]; pH 7.4, 5 μM, read-out: PPB fraction unbound, dog)	fraction unbound at 5 μM ([1]; pH 7.4, Comparative Example 2, read-out: PPB fraction unbound, rat (Table 5))	bioavailability ([2]; male, Sprague Dawley, plasma, rats, 1 mg/kg (IV) and 5 mg/kg (PO), Comparative Example 3, read-out: Bioavailability (Table 6))	Vd ([2]; male, Sprague Dawley, plasma, rats, Comparative Example 3, read-out: Volume of distribution (Table 6))	Tmax ([2]; male, Sprague Dawley, plasma, rats, 5 mg/kg (PO), Comparative Example 3, read-out: Tmax PO (Table 6))	fraction unbound at 5 μM ([3]; pH 7.4, Comparative Example 2, read-out: PPB fraction unbound, dog (Table 5))
NCc1ccc2c(c1)nc(CN1C(=O)C3(CC3)c3ccc(F)cc31)n2CCCC(F)(F)F [Example 1, 1′-{[5-(Aminomethyl)-1-(4,4,4-trifluorobutyl)-1H-1,3-benzodiazol-2-yl]methyl}-6′-fluoro-1′,2′-dihydrospiro[cyclopropane-1,3′-indole]-2′-one]	0.52	1.1 nM	9.4 nM	42%	22 L/kg	2.7 h	0.27	–	–	–	–	–
CC(C)CCn1c(CN2C(=O)C3(CC3)c3ccccc32)nc2cc(CN)ccc21 [RV039, 1′-((5-(aminomethyl)-1-isopentyl-1H-benzo[d]imidazol-2-yl)methyl)spiro[cyclopropane-1,3′-indolin]-2′-one, reference compound]	–	10 nM	–	–	–	–	–	0.1	4.5%	47 L/kg	7.3 h	0.1
